# Measurements taken from patent publication US12492173B2, “Herbicidal substituted N-tetrazolyl aryl carboxamides” (Bayer Aktiengesellschaft, priority 2019, dated 2025).
# Tests used:
# Type in all cases: in vivo
# [1] = test system: Pharbitis purpurea; assay: Post-emergence herbicidal action, PHBPU
# Method in brief: (§1)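 One-leaf-stage weeds, raised from seed in greenhouse sandy loam, received a single foliar spray of compound as wettable powder or emulsion concentrate with 0.2% wetting agent added. Growth continued under optimal conditions for about 3 weeks before percent damage was scored by eye against controls.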
# [2] = test system: Echinochloa crus-galli; assay: Post-emergence herbicidal action, ECHCG; set-up: key: % herbicidal action vs untreated; 100 = plants died, 0 = like control
# Method in brief: as §1
# [3] = test system: Abutilon theophrasti; assay: Post-emergence herbicidal action, ABUTH; set-up: key: % herbicidal action vs untreated; 100 = plants died, 0 = like control
# Method in brief: as §1
# [4] = test system: Lolium multiflorum; assay: Pre-emergence herbicidal action, LOLMU; details: for herbicidal activity LOLMU: dosage 320 g/ha, scored visually after 3 weeks vs untreated controls (100% = plants have died)
# From the text: 1. Pre-Emergence Herbicidal Action Against Harmful Plants Seeds of monocotyledonous and dicotyledonous weed plants and crop plants are laid out in sandy loam soil in wood-fiber pots and covered with soil. The compounds of the invention, formulated in the form of wettable powders (WP) or as emulsion concentrates (EC), are then applied to the surface of the covering soil in the form of an aqueous suspension or emulsion at a water application rate equating to 600 to 800 l/ha, with addition of 0.2% wetting agent. After the treatment, the pots are placed in a greenhouse and kept under good growth conditions for the trial plants. The damage to the test plants is scored visually after a test period of 3 weeks by comparison with untreated controls (herbicidal activity in percent (%): 100% activity=the plants have died, 0% activity=like control plants). […] The tables below illustrate, in an exemplary manner, the […] herbicidal action of the compounds according to the invention, the herbicidal activity being stated in percent. [table] In the experiments that follow, herbicidal action of numerous inventive compounds and the known compounds that are structurally closest from D1 (WO 2012/028579 A1) and D2 (WO 2018/202535 A1) were compared under the above-specified conditions by the pre-emergence and post-emergence method. The example numbers given in the tables relate to the compounds disclosed in the respective documents. In addition to the compounds disclosed in D1 and D2, the following compounds V-1 to V-14 that are encompassed by D1 or D2 but are not compounds specified therein were used in the comparative experiments: • V-1: 2-(methylsulfanyl)-3-(methylsulfinyl)-N-(1-methyl-1H-tetrazol-5-yl)-4-(trifluoromethyl)benzamide • V-2: 2-(methylsulfanyl)-3-(methylsulfonyl)-N-(1-methyl-1H-tetrazol-5-yl)-4-(trifluoromethyl)benzamide • V-3: 2,3-bis(ethylsulfanyl)-N-(1-methyl-1H-tetrazol-5-yl)-4-(trifluoromethyl)benzamide • V-4: 2-chloro-3-(ethylsulfanyl)-N-(1-methyl-1H-tetrazol-5-yl)-4-(trifluoromethyl)benzamide • V-5: 2-chloro-4-iodo-3-(methylsulfanyl)-N-(1-methyl-1H-tetrazol-5-yl)benzamide • V-6: 2-chloro-4-iodo-3-(methylsulfinyl)-N-(1-methyl-1H-tetrazol-5-yl)benzamide • V-7: 2-chloro-4-iodo-3-(methylsulfonyl)-N-(1-methyl-1H-tetrazol-5-yl)benzamide • V-8: 2-bromo-3-(methylsulfanyl)-N-(1-methyl-1H-tetrazol-5-yl)-4-(trifluoromethyl)benzamide • V-9: 2-bromo-3-(methylsulfinyl)-N-(1-methyl-1H-tetrazol-5-yl)-4-(trifluoromethyl)benzamide • V-10: 2-bromo-3-(methylsulfonyl)-N-(1-methyl-1H-tetrazol-5-yl)-4-(trifluoromethyl)benzamide • V-11: 2-bromo-3-(ethylsulfanyl)-N-(1-methyl-1H-tetrazol-5-yl)-4-(trifluoromethyl)benzamide • V-12: 2-bromo-3-(ethylsulfinyl)-N-(1-methyl-1H-tetrazol-5-yl)-4-(trifluoromethyl)benzamide • V-13: 2-bromo-3-(ethylsulfonyl)-N-(1-methyl-1-1H-tetrazol-5-yl)-4-(trifluoromethyl)benzamide • V-14: 2-cyclopropyl-3-(ethylsulfanyl)-N-(1-methyl-1H-tetrazol-5-yl)-4-(trifluoromethyl)benzamide Herbicidal Pre-Emergence Action: […]
# [5] = test system: Cyperus esculentus; assay: Post-emergence herbicidal action, CYPES; set-up: key: % herbicidal action vs untreated; 100 = plants died, 0 = like control; details: for Herbicidal action against CYPES: comparative experiment, 5 g of a.i./ha
# Method in brief: as §1
# [6] = test system: Lolium multiflorum; assay: Post-emergence herbicidal action, LOLMU; set-up: key: % herbicidal action: 100 = plants died, 0 = like control
# Method in brief: as §1
# [7] = test system: Pharbitis purpurea; assay: Pre-emergence herbicidal action, PHBPU; details: dosage 320 g/ha, scored visually after 3 weeks vs untreated controls (100% = plants have died)
# Method in brief: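 Application took place on the soil surface immediately after sowing into sandy loam, using aqueous WP or EC preparations with 0.2% wetting agent. Visual percent scoring followed 3 weeks later, untreated pots serving as reference.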
Structure (SMILES),herbicidal action PHBPU ([1]; Dosage 80 g/ha),herbicidal action ECHCG ([2]; Dosage 80 g/ha),herbicidal action ABUTH ([3]; Dosage 80 g/ha),herbicidal activity LOLMU [4] [%],herbicidal action CYPES ([5]; Dosage 80 g/ha),"herbicidal action PHBPU ([1]; post-emergence, dosage 80 g/ha) [%]","herbicidal action ECHCG ([2]; post-emergence, dosage 80 g/ha) [%]","herbicidal action LOLMU ([6]; post-emergence, dosage 80 g/ha) [%]","herbicidal action ABUTH ([3]; post-emergence, dosage 80 g/ha) [%]",herbicidal activity PHBPU [7] [%],"herbicidal action CYPES ([5]; post-emergence, dosage 80 g/ha) [%]",herbicidal action LOLMU ([6]; Dosage 80 g/ha),Herbicidal action against CYPES ([5]; post-emergence),"Herbicidal action against PHBPU ([1]; comparative experiment, post-emergence, 5 g of a.i./ha)","Herbicidal action against LOLMU ([4]; comparative experiment, 20 g of a.i./ha)"
CCCn1nnnc1NC(=O)c1ccc(C(F)(F)F)c(CSCC)c1Cl [Example 3-299],90,90,90,90,,,,,,,,,,,
CCCn1nnnc1NC(=O)c1ccc(C(F)(F)F)c(CSC)c1Cl [Example 3-296],90,100,100,80,,,,,,,,,,,
CSCc1c(C(F)(F)F)ccc(C(=O)Nc2nnnn2C)c1SC [Example 1-161],90,90,90,90,80,,,,,,,,,,
CCn1nnnc1NC(=O)c1ccc(C(F)(F)F)c(CS(C)(=O)=O)c1Br [Example 2-382],100,90,100,80,,,,,,,,,,,
CSCc1c(C(F)(F)F)ccc(C(=O)Nc2nnnn2C)c1Br [Example 1-380],,,,,,90,90,100,90,80,,,,,
Cn1nnnc1NC(=O)c1ccc(C(F)(F)F)c(C[S+](C)[O-])c1Br (centres unmarked) [Example 1-381],,,,,,100,90,80,100,80,90,,,,
CSCc1c(C(F)(F)F)ccc(C(=O)Nc2nnnn2C)c1Cl [Example 1-296],,,,90,,100,100,90,100,,90,,,,
CCn1nnnc1NC(=O)c1ccc(C(F)(F)F)c(CSC)c1SC [Example 2-161],,,,80,,90,90,,90,,80,,,,
Cc1c(C(=O)Nc2nnnn2C)ccc(C(F)(F)F)c1CS(C)(=O)=O [Example 1-85],100,90,90,,80,,,,,,,80,,,
CCn1nnnc1NC(=O)c1ccc(C(F)(F)F)c(C[S+](C)[O-])c1Br (centres unmarked) [Example 2-381],,,,80,,100,90,80,90,80,,,,,
CCSCc1c(C(F)(F)F)ccc(C(=O)Nc2nnnn2CC)c1Br [Example 2-383],,,,100,,90,90,80,100,,,,,,
CCSCc1c(C(F)F)ccc(C(=O)Nc2nnnn2C)c1SCC [Example 1-191],80,100,100,80,,,,,,,,,,,
CCn1nnnc1NC(=O)c1ccc(C(F)(F)F)c(CSC)c1Br [Example 2-380],,,,,,90,90,80,80,80,,,,,
CCCn1nnnc1NC(=O)c1ccc(C(F)(F)F)c(CSCC)c1Br [Example 3-383],90,90,90,80,,,,,,,,,,,
Cn1nnnc1NC(=O)c1ccc(C(F)(F)F)c(CS(C)(=O)=O)c1Cl [Example 1-298],,,,90,,100,90,80,80,90,90,,60,,
Cn1nnnc1NC(=O)c1ccc(Cl)c(CS(C)(=O)=O)c1Cl [Example 1-561],100,100,90,80,80,,,,,,,,,,
Cc1c(C(=O)Nc2nnnn2C)ccc(C(F)(F)F)c1C[S+](C)[O-] (centres unmarked) [Example 1-84],,,,,,100,90,80,90,80,80,,,,
CCCn1nnnc1NC(=O)c1ccc(C(F)(F)F)c(CS(=O)(=O)CC)c1Br [Example 3-385],90,100,100,90,,,,,,,,,,,
Cn1nnnc1NC(=O)c1ccc(C(F)(F)F)c(C[S+](C)[O-])c1Cl (racemic) [Example 1-297],,,,100,,100,100,100,80,90,80,,60,80,30
